Measurements published in patent publication US11485736B2 (KSQ Therapeutics, Inc., priority 2018, dated 2022).

biological target: USP1/UAF1 (Homo sapiens (Human), UniProt O94782); test: Deubiquitination assay for USP1/UAF1 activity (ubiquitin-rhodamine 110); assay type: biochemical; details: Table 2; 0.05 nM USP1/UAF1, 150 nM ubiquitin-rhodamine
Procedure: Certain Compounds of the Disclosure were assessed for USP1/UAF1 activity in a Ubiquitin Rhodamine assay modified from those described previously.
Deubiquitinase activity was measured using ubiquitin-rhodamine 110 as a substrate. Cleavage of the amide bond between rhodamine and the c-terminal glycine of ubiquitin yields an increase in fluorescence signal. The assay was conducted in 20 ul total volume of assay buffer (50 mM Tris-HCl, pH 7.8, 0.5 mM EDTA, 0.01% Bovine Serum Albumin, 1 mM DTT, 0.01% Tween-20), and 0.05 nM USP1/UAF1 enzyme.
Compounds, dissolved in DMSO were tested in dose response format, beginning at 10 uM.
Compounds depicted below were added to enzyme/assay buffer mix and incubated 10 min.
Data for all assay formats was calculated as percent inhibition compared with control wells. […] IC50 values were calculated using the standard four parameter curve fitting algorithm in either Prism GraphPad (La Jolla, Calif.) software, or Collaborative Drug Discovery (Burlingame, Calif.) CDD Vault.

Chain of USP1/UAF1 (O94782 whole entry): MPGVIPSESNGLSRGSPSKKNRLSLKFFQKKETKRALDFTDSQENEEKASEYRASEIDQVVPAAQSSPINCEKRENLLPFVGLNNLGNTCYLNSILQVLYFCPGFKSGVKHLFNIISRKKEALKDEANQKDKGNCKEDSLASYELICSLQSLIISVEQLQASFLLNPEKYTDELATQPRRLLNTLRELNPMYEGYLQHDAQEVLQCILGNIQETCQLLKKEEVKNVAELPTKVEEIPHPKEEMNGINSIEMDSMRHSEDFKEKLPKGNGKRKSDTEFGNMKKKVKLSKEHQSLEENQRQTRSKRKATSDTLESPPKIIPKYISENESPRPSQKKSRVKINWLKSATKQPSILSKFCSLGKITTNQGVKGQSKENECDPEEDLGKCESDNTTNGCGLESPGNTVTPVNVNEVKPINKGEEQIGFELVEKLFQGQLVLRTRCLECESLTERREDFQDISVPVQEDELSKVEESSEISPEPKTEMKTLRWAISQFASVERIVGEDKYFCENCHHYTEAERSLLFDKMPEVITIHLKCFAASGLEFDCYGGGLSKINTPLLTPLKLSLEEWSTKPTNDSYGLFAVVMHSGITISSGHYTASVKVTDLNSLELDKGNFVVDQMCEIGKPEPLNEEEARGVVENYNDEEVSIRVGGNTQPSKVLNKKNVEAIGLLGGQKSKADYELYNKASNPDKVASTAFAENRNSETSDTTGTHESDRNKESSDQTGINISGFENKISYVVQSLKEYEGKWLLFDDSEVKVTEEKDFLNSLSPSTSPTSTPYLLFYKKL
Chain of USP1/UAF1 (Q8TAF3 whole entry partner): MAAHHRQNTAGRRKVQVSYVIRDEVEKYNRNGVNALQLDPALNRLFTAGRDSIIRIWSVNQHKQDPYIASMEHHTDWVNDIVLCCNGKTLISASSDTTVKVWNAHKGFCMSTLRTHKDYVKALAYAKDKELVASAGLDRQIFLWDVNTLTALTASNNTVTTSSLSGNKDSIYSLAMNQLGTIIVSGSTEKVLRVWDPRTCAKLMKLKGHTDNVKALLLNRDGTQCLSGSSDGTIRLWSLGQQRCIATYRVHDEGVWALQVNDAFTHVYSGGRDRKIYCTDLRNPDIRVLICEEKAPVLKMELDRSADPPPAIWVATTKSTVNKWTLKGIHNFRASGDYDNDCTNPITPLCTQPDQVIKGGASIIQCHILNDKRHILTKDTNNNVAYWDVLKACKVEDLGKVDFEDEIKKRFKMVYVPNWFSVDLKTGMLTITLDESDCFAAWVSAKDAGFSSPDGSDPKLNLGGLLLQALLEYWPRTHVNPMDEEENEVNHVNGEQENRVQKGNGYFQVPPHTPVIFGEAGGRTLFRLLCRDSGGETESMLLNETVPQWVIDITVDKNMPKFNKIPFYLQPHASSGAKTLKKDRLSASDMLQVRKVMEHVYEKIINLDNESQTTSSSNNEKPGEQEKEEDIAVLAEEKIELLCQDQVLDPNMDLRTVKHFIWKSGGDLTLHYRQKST

SMILES | IC50
COc1cccc(OC)c1-c1ncc2cnn(Cc3ccc(-c4nc(C(F)(F)F)cn4C)cc3)c2n1 [drawing 714] | 10 to 100 nM
Cc1cc(C(F)(F)F)nn1-c1ccc(Cn2ncc3cnc(-c4ccccc4C(C)C)nc32)cc1 [drawing 716] | 10 to 100 nM
CC(C)c1ncccc1-c1ncc2cnn(Cc3ccc(-c4nc(C(F)(F)F)cn4C)cc3)c2n1 [drawing 721] | 10 to 100 nM

same assay, conditions: Table 3; 0.05 nM USP1/UAF1, 150 nM ubiquitin-rhodamine

SMILES | IC50
COc1ncnc(C2CC2)c1-c1ncc2cnn(Cc3ccc(-c4nc(C(F)(F)F)cn4C4CC4)cc3)c2n1 [drawing 739] | 10 to 100 nM
CCn1cc(C(F)(F)F)nc1-c1ccc([C@H](C)n2ncc3cnc(-c4c(OC)ncnc4C4CC4)nc32)cc1 (single isomer, unassigned) [drawing 751] | 10 to 100 nM
COc1ncnc(C2CC2)c1-c1ncc2cnn(Cc3ccc(-c4nc(C(F)(F)F)cn4C)c(F)c3)c2n1 [drawing 746] | 10 to 100 nM
CCn1cc(C(F)(F)F)nc1-c1ccc(Cn2ncc3cnc(-c4c(OCc5ccccc5)ncnc4C4CC4)nc32)cc1 | 100 to 200 nM
CCOc1ncnc(OCC)c1-c1ncc2cnn(Cc3ccc(-c4nc(C(F)(F)F)cn4CC)cc3)c2n1 [drawing 733] | < 10 nM
CCOc1ncnc(C2CC2)c1-c1ncc2cnn(Cc3ccc(-c4nc(C(F)(F)F)cn4C)cc3)c2n1 [drawing 763] | 10 to 100 nM
Cc1cnn(C(C)C)c1-c1ncc2cnn(Cc3ccc(-n4nc(C(F)(F)F)cc4C)cc3)c2n1 [drawing 734] | < 10 nM
CCn1cc(C(F)(F)F)nc1-c1ccc(Cn2ncc3cnc(-c4c(OC)ncnc4OC)nc32)cc1 [drawing 755] | 10 to 100 nM
Cc1ncnc(N(C)C)c1-c1ncc2cnn(Cc3ccc(-n4nc(C(F)(F)F)cc4C)cc3)c2n1 | > 200 nM
CCn1cc(C(F)(F)F)nc1-c1ccc(Cn2ncc3cnc(-c4c(OCCF)ncnc4C4CC4)nc32)cc1 [drawing 741] | 10 to 100 nM
COc1ncnc(C2CC2)c1-c1ncc2cnn(Cc3ccc(-c4nc(C(F)(F)F)c5n4CCNC5)cc3)c2n1 [drawing 773] | 10 to 100 nM
COc1ncnc(C2CC2)c1-c1ncc2cnn(Cc3ccc(-c4nc(C(F)(F)F)cn4CC(=O)N(C)C)cc3)c2n1 | > 200 nM
COc1ncnc(C2CC2)c1-c1ncc2cnn([C@@H](C)c3ccc(-c4nc(C(F)(F)F)cn4C)cc3)c2n1 (single isomer, unassigned) [drawing 743] | 10 to 100 nM

same assay, conditions: Table 4; 0.05 nM USP1/UAF1, 150 nM ubiquitin-rhodamine

SMILES | IC50
CCn1cc(C(F)(F)F)nc1-c1ccc(Cn2nc(N3CCC3)c3cnc(-c4c(OC)ncnc4C4CC4)nc32)cc1 [drawing 810] | 10 to 100 nM
